In patent US20060024392A1, “Compositions and methods for enhancing the effectiveness of a chemotherapeutic agent” (priority 2004, published 2006):
“Also recorded” adds a separate entry of the source.

Tested on: HT29 colon cancer cells
Assay: Sulforhodamine B (SRB) cell growth assay in HT29 colon cancer cells
Assay type: cell-based
Protocol: HT-29, a cell line derived from colorectal adenocarcinoma (ATCC, HTB 38), grows in McCoy's 5A medium (Biowhittaker, Inc. Walkersville, Md.). NCM460, a cell line derived from a normal human colon (InCell Corp. San Antonio, Tex.), grows in M3 Base media (InCell Corp. San Antonio, Tex.).
Both cell lines are kept at 37° C. and 5% CO2 atmosphere. Both media are supplemented with 10% fetal bovine serum (FBS, Biowhittaker, Inc. Walkersville, Md.).
Cells are fixed in situ by the gentle addition of 50 μl of cold 50% (w/v) TCA (final concentration, 10% TCA) and incubated for 60 minutes at 4° C. The supernatant is discarded, and the plates are washed five times with tap water and air dried. Sulforhodamine B (SRB) solution (100 μl) at 0.4% (w/v) in 1% acetic acid is added to each well, and plates are incubated for 10 minutes at room temperature. After staining, unbound dye is removed by washing five times with 1% acetic acid and the plates are air dried. Bound stain is subsequently solubilized with 100 μl 10 mM trizma base for 5 minutes, and the absorbance at wavelength of 490 nm was spectrophotometrically measured using a microplate reader Elx800 (Bio-Tek instruments, Inc.).
Cells were seeded in 96-well cluster tissue culture plates (Costar), containing 100 μl complete growth medium per well at densities of 5,000 cells per well. Incubated at 37° C. in a humidified tissue culture incubator. After 24 Hour, 100 μl complete medium containing 5 half-log dilutions of the 5FU from 2*10^−4 to 2*10^−6 M was added into each well (final concentrations are from 10^−4 to 10^−6 M). Six replicates were used for each concentration. Media containing 0.125% DMSO was used as control. After 48 hours of incubation with 5FU in medium, cell proliferation was assessed using the SRB assay.
Percentage growth (Growth%) is calculated as: [(Ti−Tz)/(C−Tz)]×100 [absorbance measurements at time zero (Tz), control growth (C), and test growth in the presence of drug at the different concentration levels (Ti)].
Similar to the method used in testing GI50 of 5FU: HT29 was plated at 5000 cells per well. […] After 48 hour treatment, cell growth was assessed using SRB assay.
The protocol was the same as described above, except cells were exposed to 5FU at concentration ranging from 10^−4 to 10^−6 M with chokeberry ARE at concentration of 1.56, 5, 15.6, 50 μg monomeric anthocyanin/ml growth media.
The protocol was the similar to Experiment 1: Cells were exposed to half-log diluted SAC at concentration ranging from 3.2 to 1000 μM for 48 hour. Media containing 0.5% filtered water was used as control.
This experiment was to determine whether the antioxidant, SAC would enhance the effect of 5FU in HT29 cells. The protocol was the same as Experiment 3, except cells were exposed to 5FU at concentration ranging from 10^−4 to 10^−6 M with SAC at concentration of 10, 100, 1000 μM.

[1] = SAC 3.2 μM, 48 hour, experiment 1
[2] = SAC 3.2 μM, 48 hour, experiment 2
[3] = SAC 10 μM, 48 hour, experiment 1
[4] = SAC 10 μM, 48 hour, experiment 2
[5] = SAC 32 μM, 48 hour, experiment 1
[6] = SAC 32 μM, 48 hour, experiment 2
[7] = SAC 100 μM, 48 hour, experiment 1
[8] = SAC 100 μM, 48 hour, experiment 2
[9] = SAC 320 μM, 48 hour, experiment 1
[10] = SAC 320 μM, 48 hour, experiment 2
[11] = SAC 1000 μM, 48 hour, experiment 1
[12] = SAC 1000 μM, 48 hour, experiment 2
[13] = Table 6 (1): SAC 1000 uM, 5FU 0
[14] = Table 6 (2): SAC 1000 uM, 5FU 0

Compound: C=CCSC[C@H](N)C(=O)O [SAC, S-Allyl-cysteine]
- enhancement of 5FU toxicity by SAC (5FU 10^−4 to 10^−6 M with SAC 10, 100, 1000 μM): No significant enhancement; also recorded: did not inhibit HT29 cell growth or enhance 5 FU toxicity
- Growth % [1]: 101.17%
- OD [1]: 0.66
- Growth % [2]: 102.24%
- OD [2]: 0.682
- Growth % [3]: 98.37%
- OD [3]: 0.648
- Growth % [4]: 94.17%
- OD [4]: 0.646
- Growth % [5]: 92.77%
- OD [5]: 0.624
- Growth % [6]: 98.43%
- OD [6]: 0.665
- Growth % [7]: 92.77%
- OD [7]: 0.624
- Growth % [8]: 98.21%
- OD [8]: 0.664
- Growth % [9]: 81.59%
- OD [9]: 0.576
- Growth % [10]: 101.35%
- OD [10]: 0.678
- Growth % [11]: 86.95%
- OD [11]: 0.599
- Growth % [12]: 98.65%
- OD [12]: 0.666
- inhibition of HT29 cancer cells by SAC (SAC 3.2 to 1000 μM, 48 hour): did not show significant inhibition; also recorded: did not inhibit HT29 cell growth
- Growth % (Table 6 (1): SAC 10 uM, 5FU 0): 104.65%
- OD (Table 6 (1): SAC 10 uM, 5FU 0): 0.341
- Growth % (Table 6 (1): SAC 100 uM, 5FU 0): 104.19%
- OD (Table 6 (1): SAC 100 uM, 5FU 0): 0.34
- Growth % [13]: 95.35%
- OD [13]: 0.321
- Growth % (Table 6 (2): SAC 10 uM, 5FU 0): 92.41%
- OD (Table 6 (2): SAC 10 uM, 5FU 0): 0.335
- Growth % (Table 6 (2): SAC 100 uM, 5FU 0): 91.56%
- OD (Table 6 (2): SAC 100 uM, 5FU 0): 0.333
- Growth % [14]: 74.26%
- OD [14]: 0.292
